Data published in publication PMC12892976, “Alkylation-based optimization of antifungal FPPS inhibitors yields a potent, broad-spectrum lipophilic zoledronate derivative” (mBio, 2025).
In brackets after ≈: the same amount, converted by molar mass.

Experiments:
Aspergillus fumigatus [1] = experiment: MIC/MFC broth microdilution (CLSI); details: ATCC204305
Method: (§1) Antifungal susceptibility was determined by broth microdilution according to the CLSI guidelines described in M27-Ed4 ([16]). […] MFC was determined by back-plating drug-treated cultures from MIC broths onto SDA plates. The MFC was defined as the lowest concentration from which no colonies could be cultured.

Aspergillus flavus [2] = experiment: checkerboard drug interaction (FICI, MICc); format: cell-based;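 further: simplified diagonal checkerboard screen pairing azole antifungals with FPPS inhibitors, FICI calculated under the Loewe additivity model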
Method: (§2) Drug interactions between antifungals and FPPS inhibitors were investigated using a simplified checkerboard diagonal screening method ([45]). […] FICIs were determined according to the Loewe additivity model ([17]).

Saccharomyces cerevisiae [3] = experiment: MIC/MFC broth microdilution (CLSI); format: cell-based; details: Saccharomyces cerevisiae S288c
Method: as §1

[4] = system: Cryptococcus deuterogattii; experiment: MIC/MFC broth microdilution (CLSI); details: Cryptococcus deuterogattii R265;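 further: broth microdilution per CLSI M27-Ed4. MFC is the lowest concentration yielding no colonies when MIC broths are subcultured onto SDA plates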
Method: as §1

Candida tropicalis = experiment: MIC broth microdilution (CLSI); format: cell-based; details: Candida tropicalis M230640
Method: (§3) Antifungal susceptibility was determined by broth microdilution according to the CLSI guidelines described in M27-Ed4 ([16]).

Candida albicans [5] = experiment: MIC/MFC broth microdilution (CLSI); format: cell-based; details: Candida albicans SC5314
Method: as §1

Saccharomyces cerevisiae [6] = experiment: checkerboard drug interaction (FICI, MICc); format: cell-based;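 further: simplified diagonal checkerboard screen pairing antifungals with FPPS inhibitors, FICI calculated under the Loewe additivity model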
Method: as §2

Aspergillus fumigatus [7] = experiment: checkerboard drug interaction (FICI, MICc); format: cell-based;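 further: simplified diagonal checkerboard screen pairing antifungals with FPPS inhibitors against Aspergillus fumigatus, with FICI calculated under the Loewe additivity model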
Method: as §2

Trichophyton rubrum [8] = experiment: checkerboard drug interaction (FICI, MICc); format: cell-based;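 further: simplified diagonal checkerboard screen pairing azole antifungals with FPPS inhibitors, FICI calculated under the Loewe additivity model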
Method: as §2

[9] = system: Trichophyton interdigitale; experiment: MIC broth microdilution (CLSI); format: cell-based; details: Trichophyton interdigitale R-234
Method: as §3

Trichophyton rubrum [10] = experiment: MIC/MFC broth microdilution (CLSI); details: Trichophyton rubrum R-218
Method: as §1

Candida glabrata [11] = experiment: MIC/MFC broth microdilution (CLSI); details: Candida glabrata CBS138 (ATCC 2001);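 further: broth microdilution following CLSI M27-Ed4, MFC taken as the lowest drug level yielding no growth once MIC wells were subcultured on SDA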
Method: as §1

Cryptococcus neoformans [12] = experiment: MIC/MFC broth microdilution (CLSI); details: Cryptococcus neoformans H99;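 further: susceptibility testing followed the CLSI M27-Ed4 broth microdilution document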
Method: as §1

Aspergillus felis = experiment: checkerboard drug interaction (FICI, MICc); format: cell-based;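 further: simplified diagonal checkerboard screen pairing antifungals with FPPS inhibitors, FICI calculated under the Loewe additivity model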
Method: as §2

Candida glabrata [13] = experiment: checkerboard drug interaction (FICI, MICc); format: cell-based
Method: as §2

Cryptococcus neoformans [14] = experiment: checkerboard drug interaction (FICI, MICc); format: cell-based;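 further: antifungal plus FPPS inhibitor pairs tested against Cryptococcus neoformans by simplified diagonal checkerboard screening, FICI computed under the Loewe additivity model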
Method: as §2

[15] = system: Cryptococcus deuterogattii; experiment: checkerboard drug interaction (FICI, MICc); format: cell-based;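 further: simplified diagonal checkerboard screen pairing antifungal drugs with FPPS inhibitors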
Method: as §2

Candida albicans [16] = experiment: checkerboard drug interaction (FICI, MICc); format: cell-based;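 further: antifungal plus FPPS inhibitor combinations on Candida albicans tested by a simplified diagonal checkerboard screen, with FICI calculated under the Loewe additivity model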
Method: as §2

Aspergillus flavus [17] = experiment: MIC/MFC broth microdilution (CLSI); details: ATCC204304
Method: as §1

SMILES	MIC / MEC (Aspergillus fumigatus [1])	antifungal MICc (Aspergillus flavus [2]; in combination with 10-ZOL)	antifungal MICc (Aspergillus flavus [2]; in combination with ZOL)	MIC / MEC (Saccharomyces cerevisiae [3])	MIC / MEC [4]	MIC / MEC (Candida tropicalis)	MIC / MEC (Candida albicans [5])	antifungal MICc (Saccharomyces cerevisiae [6]; in combination with 10-ZOL)	antifungal MICc (Saccharomyces cerevisiae [6]; in combination with ZOL)	antifungal MICc (Aspergillus fumigatus [7]; in combination with 10-ZOL)	antifungal MICc (Aspergillus fumigatus [7]; in combination with ZOL)	antifungal MICc (Trichophyton rubrum [8]; in combination with 10-ZOL)	antifungal MICc (Trichophyton rubrum [8]; in combination with ZOL)	MIC / MEC [9]	MIC / MEC (Trichophyton rubrum [10])	MIC / MEC (Candida glabrata [11])	MIC / MEC (Cryptococcus neoformans [12])	antifungal MICc (Aspergillus felis; in combination with 10-ZOL)	antifungal MICc (Aspergillus felis; in combination with ZOL)	antifungal MICc (Candida glabrata [13]; in combination with 10-ZOL)	other results
Nc1nc(=O)[nH]cc1F [5FC, 5-flucytosine]	>64 µg/mL	256	128	1 µg/mL (≈ 7.75 µM)	8 µg/mL (≈ 62 µM)	0.5 µg/mL (≈ 3.87 µM)	0.25 µg/mL (≈ 1.94 µM)	1	1	256	128	32	128	>64 µg/mL	>64 µg/mL	0.25 µg/mL (≈ 1.94 µM)	4 µg/mL (≈ 31 µM)	256	64	0.125	antifungal MICc (Candida glabrata [13]; in combination with ZOL): 0.125; antifungal MICc (Cryptococcus neoformans [14]; in combination with 10-ZOL): 0.25; antifungal MICc (Cryptococcus neoformans [14]; in combination with ZOL): 1; antifungal MICc ([15]; in combination with 10-ZOL): 0.5; antifungal MICc ([15]; in combination with ZOL): 0.125; antifungal MICc (Candida albicans [16]; in combination with 10-ZOL): 0.125; antifungal MICc (Candida albicans [16]; in combination with ZOL): 0.25; MIC / MEC (Aspergillus flavus [17]): >64 µg/mL
C[C@@H]1[C@H](O)[C@@H](C)/C=C/C=C/C=C/C=C/C=C/C=C/C=C/[C@H](O[C@@H]2O[C@H](C)[C@@H](O)[C@H](N)[C@@H]2O)C[C@@H]2O[C@](O)(C[C@@H](O)C[C@@H](O)[C@H](O)CC[C@@H](O)C[C@@H](O)CC(=O)O[C@H]1C)C[C@H](O)[C@H]2C(=O)O [AMB, amphotericin B]	0.25 µg/mL (≈ 0.271 µM)	0.5	0.25	0.25 µg/mL (≈ 0.271 µM)	0.25 µg/mL (≈ 0.271 µM)	1 µg/mL (≈ 1.08 µM)	0.25 µg/mL (≈ 0.271 µM)	0.25	0.5	0.125	0.25	0.5	2	0.5 µg/mL (≈ 0.541 µM)	1 µg/mL (≈ 1.08 µM)	0.25 µg/mL (≈ 0.271 µM)	0.25 µg/mL (≈ 0.271 µM)	2	8	0.5	antifungal MICc (Candida glabrata [13]; in combination with ZOL): 0.125; antifungal MICc (Cryptococcus neoformans [14]; in combination with 10-ZOL): 0.5; antifungal MICc (Cryptococcus neoformans [14]; in combination with ZOL): 0.5; antifungal MICc ([15]; in combination with 10-ZOL): 0.25; antifungal MICc ([15]; in combination with ZOL): 0.25; antifungal MICc (Candida albicans [16]; in combination with 10-ZOL): 0.25; antifungal MICc (Candida albicans [16]; in combination with ZOL): 0.25; MIC / MEC (Aspergillus flavus [17]): 0.5 µg/mL (≈ 0.541 µM)
CC[C@H](C)C[C@H](C)CCCCCCCCC(=O)N[C@H]1C[C@@H](O)[C@@H](NCCN)NC(=O)[C@@H]2[C@@H](O)CCN2C(=O)[C@H]([C@H](O)CCN)NC(=O)[C@H]([C@H](O)[C@@H](O)c2ccc(O)cc2)NC(=O)[C@@H]2C[C@@H](O)CN2C(=O)[C@H]([C@@H](C)O)NC1=O [CAS, caspofungin]	16 µg/mL (≈ 14.6 µM)	2	4	0.5 µg/mL (≈ 0.457 µM)	16 µg/mL (≈ 14.6 µM)	0.06 µg/mL (≈ 0.0549 µM)	0.13 µg/mL (≈ 0.119 µM)	0.125	0.5	8	8	0.25	0.063	0.25 µg/mL (≈ 0.229 µM)	0.25 µg/mL (≈ 0.229 µM)	0.13 µg/mL (≈ 0.119 µM)	8 µg/mL (≈ 7.32 µM)	0.5	0.5	0.125	antifungal MICc (Candida glabrata [13]; in combination with ZOL): 0.25; antifungal MICc (Cryptococcus neoformans [14]; in combination with 10-ZOL): 2; antifungal MICc (Cryptococcus neoformans [14]; in combination with ZOL): 16; antifungal MICc ([15]; in combination with 10-ZOL): 4; antifungal MICc ([15]; in combination with ZOL): 16; antifungal MICc (Candida albicans [16]; in combination with 10-ZOL): 0.063; antifungal MICc (Candida albicans [16]; in combination with ZOL): 0.25; MIC / MEC (Aspergillus flavus [17]): 8 µg/mL (≈ 7.32 µM)
